Measurements from paper PMC10042540, “Targeting oncogenic KRasG13C with nucleotide-based covalent inhibitors” (eLife, 2023).

Tests used:
KRasWT1-169 = KRasWT1-169 (Homo sapiens, UniProt P01116); test: HPLC-based approach for determination of affinities relative to GDP; format: binding; conditions: KA = KA(GDP) x KrelA; GDP from KA = 1/KD
Description: The relative affinities of the nucleotide analogues were measured using an HPLC-based approach. 50 μM of […] was mixed with 50 μM of the acetamide derivatives and incubated either for 7 days at room temperature in the absence of EDTA, for 24 hr at 4 °C in the presence of 10 mM EDTA, or for 1 hr at room temperature in the presence of SOS in a buffer consisting of 20 mM HEPES (pH 7.5), 100 mM NaCl, 2 mM MgCl2, 1 mM TCEP and 5% glycerol. After incubation, the Ras proteins were washed five times with buffer (15 mL) using centrifugal filter devices to remove any unbound nucleotide, concentrated and analysed by isocratic HPLC runs. The resulting curves were analysed by integrating the corresponding peaks for GDP and the guanosine nucleotide analogues after distinct time points using the Agilent ChemStation Software (Table 1-source data 3, Table 1-source data 4). Based on the percentage distribution determined by the HPLC assay, the relative association constants (KrelA) for […] and bdaGDP could subsequently be calculated. In contrast, the superposition of the GDP signal prevented an exact determination of the relative association constant for […] values of 0.34 and 0.28 relative to GDP were determined for […] and bdaGDP, respectively. […] By rearranging the equilibrium reactions listed in (Equation 1a) and (Equation 1b), the following relationships are obtained for KGDP (Equation 2a) and […] Assuming that the concentration for aGDP used in the HPLC assay is 50 μM, the following GDP concentrations for […] (Equation 3a) and bdaGDP (Equation 3b) can be determined at time t=0 hr using the percentages determined in Table 1-source data 3:(3a) GDPtotal=%GDP/%[…]=37%/63%×50μM=29.4μM (3b) GDPtotal=%GDP/%bdaGDP=43%/57%×50μM=37.7μM The concentrations of the components listed in equation (Equation 2b) can be calculated as follows for […] (Equation 4a, Equation 4b, Equation 4c, Equation 4d) and bdaGDP (Equation 5a, Equation 5b, Equation 5c, Equation 5d) by considering the total GDP concentrations calculated previously:(4[…]]=47/100×29.4μM=13.8μM (4b) [Ras:GDP]=53/100×29.4μM=15.6μ[…]]=50μM-13.8μM=36.2μM (4d) [GDP]=29.4μM-15.6μM=13.8μM (5a) [Ras:bdaGDP]=39.5/100×37.7μM=14.9μM (5b) [Ras:GDP]=60.5/100×37.7μM=22.8μM (5c) [bdaGDP]=50μM-14.9μM=35.1μM (5d) [GDP]=37.7μM-22.8μM=14.9μM The relative association constant KrelA can be calculated by the following formula (Equation 6):(6) […] By inserting the concentrations of each component determined from (Equation 4a, Equation 4b, Equation 4c, Equation 4d) and (Equation 5a, Equation 5b, Equation 5c, Equation 5d) into (Equation 6), the relative association constants KrelA for […] (Equation 10a) and […]=1/0.136pM^-1=7.4pM (10b) KDbdaGDP=1/0.112pM^-1=8.9pM

nucleotide-free KRas = test: Stopped-flow competition with mantdGDP (association kinetics); format: binding; conditions: for kon: 25 °C, 1 µM KRas, 2 µM mantdGDP, 1, 2, 6 µM competing nucleotide, global fit
Description: The association kinetics of the nucleotide analogues were analyzed with a SX-20 stopped-flow instrument (Applied Photophysics) at 25 °C in a buffer consisting of 25 mM HEPES (pH 7.5), 100 mM NaCl, 1 mM MgCl2, and 0.5 mM TCEP. 1 µM of nucleotide-free KRas ([Müller et al., 2017]) in one syringe was mixed rapidly with 2 µM mantdGDP in the other. In subsequent experiments, the second syringe contained competing nucleotides (1, 2, and 6 µM) in addition to 2 µM mantdGDP. The resulting progress curves were globally fit using KinTek Explorer to obtain the corresponding association rate constants as previously described (Table 1—source data 1, Table 1—source data 2 [Johnson et al., 2009]).

KRas = target: KRas; parameters: method as in Jeganathan et al., 2018; conditions: reference value for GDP; ref Jeganathan et al., 2018; cited from earlier work
[1] = test system: T1, KRasG13C1-169 (Cys-light); test: Covalent modification of protein controlled by ESI-MS; format: binding
T1 construct: KRasWT1-169 and KRasG13C1-169 Cys-light (C51S C80L C118S) were expressed in BL21 (DE3) E. coli; hexahistidine (TEV site) (N, cleaved yes); made in house; host or cells: E. coli BL21 (DE3)
Description: After incubation at room temperature for the appropriate time, the modification of the protein was controlled by ESI-MS. For covalent modification of full-length KRasG13C, a nucleotide exchange with a 10-fold excess of the acryl-bearing nucleotides at pH 7.5 was first performed following incubation at room temperature for 24 h at pH 9.5 for covalent protein modification. Covalent protein modification was controlled by ESI-MS. The MS spectra were recorded on a VelosPro IonTrap (Thermo Scientific) with an EC 50/3 Nucleodur C18 1.8 μm column (Macherey and Nagel) and a gradient of the mobile phase A (0.1% formic acid in water) to B (0.1% formic acid in acetonitrile).

Rab21 = test: as above; format: binding; conditions: compared to KRasG13C

KRasWT1-169, sequence (P01116 1-169): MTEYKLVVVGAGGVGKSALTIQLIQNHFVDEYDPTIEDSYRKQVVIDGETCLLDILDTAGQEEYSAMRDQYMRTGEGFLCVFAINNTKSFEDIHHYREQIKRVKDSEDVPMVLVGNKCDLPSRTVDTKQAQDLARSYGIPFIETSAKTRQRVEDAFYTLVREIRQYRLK

KA (KRasWT1-169) [pM⁻¹]	Compound	kon (nucleotide-free KRas) [µM^–1s^–1]	koff (nucleotide-free KRas; calculated kinetic parameter)	Kd (KRas) [pM]	covalent labelling of KRasG13C1-169 (Cys-light) ([1]; pH 7.5, after 24 hr)	covalent labelling of KRasG13C1-169 (Cys-light) ([1]; pH 9.5, after 24 hr) [%]	covalent modification of Rab21 (Rab21)
0.4	Nc1nc2c(ncn2[C@@H]2O[C@H](COP(=O)(O)OP(=O)(O)O)[C@@H](O)[C@H]2O)c(=O)[nH]1 [GDP, reference compound]	4.22	1.1x10^–5 s^–1	2.5	–	–	–
–	C=CC(=O)NCCNC(=O)O[C@H]1[C@@H](O)[C@H](n2cnc3c(=O)[nH]c(N)nc32)O[C@@H]1COP(=O)(O)OP(=O)(O)O [edaGDP]	3.73	–	–	slight labelling	~100	comparable to KRasG13C
